Measurements taken from ChEMBL document CHEMBL1126612, “Synthesis and pharmacological evaluation of hexahydrofluorenamines as noncompetitive antagonists at the N-methyl-D-aspartate receptor” (J Med Chem, 1993).

Columns and labels:
[1] = Partition coefficient determined using standard shake flask method at pH 7.4.; format: physicochemical; settings: octanol/water
Glutamate NMDA receptor [2] = assay: Evaluated for their affinity at the PCP site for displacement of [3H]TCP in rat brain homogenates; format: tissue-based
Rattus norvegicus [3] = organism: Rattus norvegicus; assay: Compound was evaluated for the inhibition of glutamate-stimulated calcium influx (GSCI); (N=1); format: functional
[4] = molecular target: Glutamate NMDA receptor (Rattus norvegicus) (UniProt P35439+Q00959+Q00960+Q00961+Q62645+Q8VHN2+Q9R1M7); assay: (§1) Percent inhibition at the PCP site for displacement of [3H]TCP in rat brain homogenates at […]; format: tissue-based
Mus musculus = assay: Compound was evaluated for in vivo activity assessed by prevention of NMDA-induced lethality in mice (N= 10 animals); format: functional
Glutamate NMDA receptor [5] = assay: as §1; format: tissue-based
Rattus norvegicus [6] = organism: Rattus norvegicus; assay: Compound was evaluated for the inhibition of glutamate-stimulated calcium influx (GSCI); format: functional

Row | Structure (SMILES) | logD [1] | IC50 (Glutamate NMDA receptor [2]) [µM] | inhibition [4] [%] | ED50 (Mus musculus) [mg/kg] | other results
1 | C=C1c2ccccc2C2(NC)CCCCC12 (centres undefined) | 0.76 | 0.528 | – | – | –
2 | CNC12CCCCCC1Cc1ccccc12 (centres undefined) | 0.66 | 0.113 | – | – | IC50 (Rattus norvegicus [3]): 1.2 µM
3 | CNCC12CCCCC1c1ccccc1C2 (centres undefined) | – | – | 0 | – | –
4 | CNC12CCCCC1Cc1ccc(O)cc12 (centres undefined) | – | 0.0165 | – | 0.99 | IC50 (Rattus norvegicus [3]): 0.14 µM
5 | CNC12CCCCC1Cc1ccsc12 (centres undefined) | – | 0.066 | – | 1.1 | –
6 | CNC12c3ccccc3CC1CCCC2C (centres undefined) | – | 0.079 | – | 0.8 | IC50 (Rattus norvegicus [3]): 0.39 µM
7 | NC12CCCC1Cc1ccccc12 (centres undefined) | -0.28 | – | – | – | IC50 (Glutamate NMDA receptor [5]): 0.005 µM
8 | c1ccc(CNC23CCCCCC2Cc2ccccc23)cc1 (centres undefined) | – | – | 6 | – | –
9 | CC[C@]1(c2ccccc2)OC[C@H]([C@@H]2CCCCN2)O1 [ETOXADROL] | – | 0.107 | – | – | –
10 | CCN[C@]12CCCC[C@H]1Cc1ccccc12 | – | 0.0552 | – | 0.2 | IC50 (Rattus norvegicus [3]): 0.061 µM
11 | CNC12CCCCC1c1ccccc1C2 (centres undefined) | 0.62 | – | 0 | – | –
12 | NC12CCCCC1c1ccccc1C2 (centres undefined) | 0.3 | – | 0 | – | –
13 | CN[C@]12CCCC[C@H]1Cc1ccccc12 | 0.33 | 0.0099 | – | 0.1 | IC50 (Rattus norvegicus [6]): 0.12 µM
14 | NC12CCCCCC1Cc1ccccc12 (centres undefined) | – | 0.304 | – | – | –
15 | N[C@]12CCCC[C@H]1Cc1ccccc12 | – | 0.0134 | – | 0.61 | IC50 (Rattus norvegicus [6]): 0.51 µM
16 | CNC12CCC(CO)CC1Cc1ccccc12 (centres undefined) | 0.17 | 3.94 | – | – | –
17 | C=C1c2ccccc2C2(N)CCCCC12 (centres undefined) | – | – | 4 | – | –
18 | NC12CCC(CO)CC1Cc1ccccc12 (centres undefined) | 0.86 | 0.253 | – | – | –

Row | Structure (SMILES) | logD [1] | IC50 (Glutamate NMDA receptor [2]) [µM] | inhibition [4] [%] | ED50 (Mus musculus) [mg/kg] | other results
19 | CNC12CC=CCC1c1ccccc1C2 (centres undefined) | 0.04 | – | 0 | – | –
20 | CC1CCCC2Cc3ccccc3C12N (centres undefined) | – | 0.159 | – | – | –
21 | c1ccc(C2(N3CCCCC3)CCCCC2)cc1 [PHENCYCLIDINE] | 3.63 | 0.0365 | – | 0.55 | IC50 (Rattus norvegicus [6]): 0.2 µM
22 | CN[C@@]12CCCC[C@@H]1Cc1ccccc12.CN[C@]12CCCC[C@H]1Cc1ccccc12 | 0.54 | 0.03 | – | 0.58 | IC50 (Rattus norvegicus [6]): 0.1 µM
23 | c1ccc(CNC23CCCC2Cc2ccccc23)cc1 (centres undefined) | – | – | 4 | – | –
24 | CNC12CCCCC1Sc1ccccc12 (centres undefined) | – | 0.0113 | – | 0.41 | IC50 (Rattus norvegicus [3]): 0.21 µM
25 | C[C@]12N[C@H](Cc3ccccc31)c1ccccc12 [DIZOCILPINE] | 2.1 | – | – | 0.22 | IC50 (Rattus norvegicus [6]): 0.054 µM
26 | CNC12CCCCC1Cc1ccc(OC)cc12 (centres undefined) | 0.65 | 0.022 | – | 0.51 | IC50 (Rattus norvegicus [3]): 0.16 µM
27 | CCNC12CCCCC1Cc1c(C)cccc12 (centres undefined) | – | 0.323 | – | – | –
28 | CN[C@@]12CCCC[C@@H]1Cc1ccccc12 | 0.43 | 0.107 | – | 10 | IC50 (Rattus norvegicus [6]): 2.55 µM
29 | CNC12CCC(C)CC1Cc1ccccc12 (centres undefined) | – | 0.095 | – | – | –
30 | NCC12CCCCC1c1ccccc1C2 (centres undefined) | – | – | 1 | – | –
31 | CNC[C@@H]1CC[C@@]2(NC)c3ccccc3C[C@H]2C1 | -2.65 | – | 0 | – | –
32 | CNC12CCCC1Cc1ccccc12 (centres undefined) | – | 0.35 | – | – | –
33 | CCNC12CCCCC1Oc1ccccc12 (centres undefined) | – | 0.141 | – | 1.5 | IC50 (Rattus norvegicus [3]): 1.8 µM
34 | c1ccc(CNC23CCCCC2Cc2ccsc23)cc1 (centres undefined) | – | – | 10 | – | –
35 | CN[C@@]12CC[C@@H](CN)C[C@@H]1Cc1ccccc12 | -1.42 | 0.00184 | – | – | IC50 (Rattus norvegicus [3]): 765 µM
36 | CNC12CCCCC1Cc1cc(OC)ccc12 (centres undefined) | 0.21 | – | 11 | – | –
